Assay [1] relates to Mycobacteria tuberculosis. The experiment in a line: MIC and drug response curve type (Tables A and B). It is filed as cell-based, Mycobacterium tuberculosis. Conditions: Table A. Here is the method:
A drug concentration response curve can be generated by graphing the log10 drug concentrations (μg/mL) against the difference in growth between the drug-treated wells and control wells. See FIG. 3C, and FIG. 5 (entries for SB-P23D8 and SB-P26D9). A NREBA is indicative of bacteriostatic activity above the MIC.
(§1) Further analysis using the methods described herein was performed on the compounds found in Tables A and B (bold font compounds are shown in FIG. 11) resulting in the data found therein.
MIC values were determined for the benzimidazoles using a modified 96-well microplate Alamar Blue (resazurin) assay (MABA) (see Kumar et al., J. Med. Chem. 2011; 54:374-381; Collins and Franzblau, Antimicrob. Agents Chemother. 1997; 41:1004-1009). Dose response curves were generated from the MABA assay for compounds by graphing the log10 drug concentrations against the difference in growth between the drug-treated wells and control wells using GraphPad Prism Version 5.0d for Mac OS X (GraphPad Software, San Diego Calif., USA, www.graphpad.com). For time dose studies, bacterial growth in the presence of compound was monitored by the O.D. 600 nm. […] The values were plotted against time using GraphPad Prism Version 5.0d for Mac OS X (GraphPad Software, San Diego Calif., USA, www.graphpad.com).

In assay [2] the test system is M. tuberculosis H37Rv. Put plainly: Acute infection model in immune incompetent GKO mice. In kind it is in vivo, mouse. Conditions: compound 150 mg/kg IP q.d. 9 days, isoniazid 25 mg/kg q.d. Here is the method: (§2) Compound efficacy was assessed in two murine models of infection based on the short term model described previously (Lenaerts et al., Antimicrob. Agents Chemother. 2003; 47:783-785). All aerosol infections were performed using a Middlebrook aerosol generation devise (Glas-Col, Terre Haute, Ind.).
(§3) In the first infection model, immune incompetent C57BL/6-Ifngtm1 ts gamma interferon gene disruption (GKO) mice were infected with M. tuberculosis H37Rv. Animals were dosed q.d. IP beginning at day 12 post-infection with 150 mg/kg of compound in 38% ethanol and 10% Solutol (e.g., Solutol HS 15) for 9 consecutive days. In the second animal model, immune competent C57BL/6 mice were infected with M. tuberculosis Erdman (TMCC 107). Animals were dosed b.i.d. IP with 100 mg/kg compound in 25% ethanol and 25% Solutol beginning at day 5 post-in feet ion for 10 consecutive days. Isoniazid was used as a comparative positive control and was delivered q.d. at 25 mg/kg as a positive control.
(§4) In both studies, animals were sacrificed and necropsied, bacterial burden in lungs or spleens were quantified on 7H11 agar containing carbenicillin (Sigma, C1389) and cycloheximide (Sigma, C7698) and upon incubation for three weeks bacterial colony forming units were enumerated. Outliers were identified by the Grubbs' Test and a one-way t-test at a 95% confidence interval was used to compare treatment groups and controls, to calculate p-values, and to produce bar graphs and scatter plots GraphPad Prism Version 5.0d for Mac OS X (GraphPad Software, San Diego Calif., USA www.graphpad.com).

Assay [3] deals with non-replicating M. tuberculosis H37Rv. The experiment in a line: Low oxygen study, non-replicating bacilli. It is filed as cell-based, Mycobacterium tuberculosis. Conditions: for Log10 (CFU+/−SD): 96 h post-treatment; for % Growth Reduction: benzimidazoles at 4 μg/mL; for Log10 (CFU) Reduction: vs control. Here is the method:
The low oxygen studies were performed similar to those described previously (Lenaerts et al., Antimicrob. Agents Chemother. 2005; 49:2294-2301). Briefly, M. tuberculosis H37Rv were diluted to an O.D. 600 nm of 0.003 in 7H9 media containing Methylene Blue (1.5 μg/mL) and were grown in 16×125 mm Hungate tubes with rubber septa (VWR cat#89167-170). The tubes, with 11 mL of the diluted cultures were incubated at 37° C. under agitation (150 rpm). […] One week after the reduction of methylene blue, approximately 28 days from the start, drug treatment was initiated with the test and control drugs. Prior to treatment, an aliquot was removed and plated for a CFU count to serve as a control. Isoniazid and metronidazole were used in the studies as comparative controls.
Recovery of aliquots for plating and the addition of drugs were conducted through septa using syringes to maintain the low-oxygen conditions. Ninety-six hours post-treatment, 1 mL of the culture was removed from the oxygen depleted cultures, the aliquot was serial diluted and the dilutions were plated. Log10 CFUs were calculated for the different treatments and concentrations. Percentage growth reduction from the controls was calculated and reported.

The test system of assay [4] is M. tuberculosis Erdman. The experiment in a line: Dissemination model in immune competent C57BL/6 mice. It is filed as in vivo, mouse. Conditions: isoniazid 25 mg/kg q.d.; for reduction of bacterial load in the spleen: compound 100 mg/kg IP b.i.d. 10 days. Here is the method:
as §2, §3, §4

The next assay has as its system M. tuberculosis. The experiment in a line: Benzimidazoles activity tested in animals (animal models of infection, Table A). It is filed as in vivo, mouse. Conditions: Table A. Here is the method: as §1, §2
Assay [5] relates to M. tuberculosis H37Rv. Put plainly: MIC / dose response by modified microplate Alamar Blue assay (MABA). Conditions: for drug concentration response curve (kill curve) type: FIG. 3. It is filed as cell-based, Mycobacterium tuberculosis. (In general: Alamar Blue is a resazurin reagent that responds to reducing activity.)
Assay [6] has as its system M. tuberculosis H37Rv. Put plainly: Growth inhibition / time dose curves (OD600 and CFU). In kind it is cell-based, Mycobacterium tuberculosis. The note with it: O.D. 600 nm growth curves, 5 days.
The test system of assay [7] is M. tuberculosis Erdman. It is filed as in vivo. The note with it: 50 mg/kg b.i.d. (Inh q.d.); for Log10CFU Lungs / Log10CFU Spleen: day 15.

Read-outs that look alike come from different tables or passages of the source. Marks after values point to notes of the source that are not given here.

Consider `CCCCOC(=O)Nc1cc2nc(C3CCCCC3)[nH]c2cc1N(CC)CC` [SB-P3G2], for which, in assay [1] (drug response curve type), the Curve entry is on record as “Sigmoid”. In assay [1] (in µg/mL), this compound gave an MIC of 1.25. For the same compound, in the assay on M. tuberculosis H37Rv [2], the “reduction of bacterial load in spleen” value came out at 0.41±0.36 log10 CFU and the “reduction of bacterial load in the lungs” value stood at 0.71±0.17 log10 CFU. In addition, in assay [3], the “Log10 (CFU+/−SD)” value is listed as 4.80 ± 0.21, the “% Growth Reduction” value came out at 72% and the “Log10 (CFU) Reduction” value was found to be 0.48. For the same compound, the “reduction of bacterial load in the spleen” value with M. tuberculosis Erdman [4] was 1.6±0.49 log10. Further, in the assay with M. tuberculosis, the “Efficacy Lung” value was “Yes” and the “Efficacy Spleen” value is recorded as “Yes”. In addition, the “drug concentration response curve (kill curve) type” value in the assay on M. tuberculosis H37Rv [5] is recorded as “sigmoidal kill curves”. Further, the MIC range in the assay with M. tuberculosis H37Rv [5] (H37Rv and Erdman strains) was 0.78 to 1.5 µg/mL. Moreover, the “concentrations at which bacterial growth was inhibited” value in the assay on M. tuberculosis H37Rv [6] is on record as “greater than 0.62 μg/mL”.

Take `NNC(=O)c1ccncc1` [Isoniazid, reference compound]: in the assay with M. tuberculosis H37Rv [2], the “reduction of bacterial load in spleen” value was “below the level of detection” and the “reduction of bacterial load in the lungs” value stood at 1.8 log10 CFU. Further, in assay [3], the “Log10 (CFU+/−SD)” value was determined as 5.15 ± 0.2, the “% Growth Reduction” value was 36% and the “Log10 (CFU) Reduction” value is listed as 0.2. In the assay on M. tuberculosis Erdman [4], the “reduction of bacterial load in the spleen” value is “below detectable levels” and the “reduction of bacterial load in the lung” value is “below detectable levels”. Also, the “drug concentration response curve (kill curve) type” value with M. tuberculosis H37Rv [5] is “sigmoidal kill curve”. In the assay on M. tuberculosis Erdman [7] (IP), the “Δ Lungs (difference between means of Test and Control Groups)” value was −6.57*** Log10 CFU; the “Δ Spleen (difference between means of Test and Control Groups)” value was −4.96*** Log10 CFU; the “Log10CFU Lungs” value was 0.12 ± 0.16 Log10 CFU; the “Log10CFU Spleen” value came to 0 ± 0 Log10 CFU. Moreover, in the assay on M. tuberculosis Erdman [7] (PO), the “Δ Lungs (difference between means of Test and Control Groups)” value is recorded as −6.31*** Log10 CFU; the “Δ Spleen (difference between means of Test and Control Groups)” value is listed as −3.89*** Log10 CFU; the “Log10CFU Lungs” value turned out to be 0 ± 0 Log10 CFU; the “Log10CFU Spleen” value is 0 ± 0 Log10 CFU.

The values are drawn from patent US10287617B2, “Methods for in vitro—in vivo efficacy determination” (COLORADO STATE UNIVERSITY RESEARCH FOUNDATION, priority 2014, dated 2019).
